Experimental data published in patent US20040006103A1, “Use of chloroquine, hydroxychloroquine and 4 amino-quinolinic derivatives to obtain a drug for the anti retroviral therapy, active towards HIV sensitive strains and towards HIV strains which are resistant to both nucleosidic and non-nucleosidic reverse transcriptase inhibitors and to proteases …” (VALPHARMA S.A., priority 2002, published 2004).
Like-named read-outs stand apart in the source and are kept apart here.

How the values were obtained:
[1] = system: HIV-1 clinical isolated, characterised by mutations in the protease gene inducing geno-phenotypic resistance to IDV; assay: p24 production susceptibility test (ACTG protocol), Table 9; format: cell-based; settings: for EC50: Human immunodeficiency virus 1, PBMC; for S.I. HCQ: I.C.50/E.C.50; for Fen. HCQ (fold): ratio to HIV-IIIB
Excerpt: (§1) For the phenotype of the nucleosidic, non-nucleosidic and proteases inhibitors was utilised a method which consider the use of human PBMC and the protocol standardised by the AIDS Clinical Trials Group, after verifying the genotype by sequence analysis.
(§2) In order to assay in vitro the susceptibility to chloroquine and hydroxychloroquine of the viral strains, it was used the protocol of the ACTG which is characterised by the measure, of the production of antigen p24 in strongly infected cells.
(§3) The susceptibility of the viral strains to chemotherapics was determined in cell cultures, prepared in 96 wells microplates, using, for the infection, 0.1 MOI.
(§4) The supernatant of the infected cultures (either in absence or in presence of different concentrations of chemotherapic) were tested for the production of p24 after 7 days, using an ELISA test which is commercially available.
(§5) The concentrations of chloroquine and hydroxychloroquine tested ranged from 0.5 to 15 uM. At the same time non-infected cells were incubated with concentrations of chloroquine and hydroxychloroquine ranging from 0 to 50 uM to evaluate the toxicity of the compound.
(§6) After 4 day from the infection, half the cellular medium was replaced with a medium containing the corresponding dilution of chloroquine and hydroxychloroquine. The percentage of inhibition of the HIV replication, induced by chloroquine and hydroxychloroquine, was determined, after 7 day from the infection, comparing the levels of p24 of this cultures and that of the control, infected and not treated with chloroquine and hydroxychloroquine.
(§7) Therefore, the E.C.50 of chloroquine and hydroxychloroquine expresses the concentration of chemotherapic that inhibits the 50% of production of p24 and the values were calculated using linear and non linear regression analysis (the significativity for the non linear regression was R^2>0.95).
(§8) In the same experimental conditions and in the same day, but with similar concentrations of chloroquine and hydroxychloroquine, it was evaluated the vitality of the infect cell cultures, and this was expressed as I.C.50.
(§9) I.C.50 (Inhibitory Concentration) indicates the concentration of the chemotherapic agent inhibiting the vitality of the cell cultures at a rate of 50%, when there is not infection.

[2] = system: HIV-1 clinical isolated, characterised by mutations in the protease gene inducing geno-phenotypic resistance to SQV; assay: p24 production susceptibility test (ACTG protocol), Table 8; format: cell-based; settings: for EC50: Human immunodeficiency virus 1, PBMC, read-out: E.C.50 HCQ; for S.I. HCQ / Fen. HCQ (fold): PBMC; for S.I. HCQ: I.C.50/E.C.50; for Fen. HCQ (fold): ratio to HIV-IIIB
Excerpt: as §1, §2, §3, §4, §5, §6, §7, §8, §9

[3] = system: HIV-1 strains geno-phenotypically resistant to NVP; assay: p24 production susceptibility test, Table 6, MT-2 cells; format: cell-based; settings: for EC50: Human immunodeficiency virus 1, MT2, MT-2, read-out: E.C.50 HCQ; for S.I. HCQ / Fen. HCQ (fold): MT-2; for S.I. HCQ: I.C.50/E.C.50; for Fen. HCQ (fold): ratio to HIV-IIIB
Excerpt: as §1, §2, §3, §4, §5, §6, §7, §8, §9

[4] = system: HIV clinical isolated, characterised by mutations in the RT gene inducing geno-phenotypic resistance to AZT; assay: p24 production susceptibility test (ACTG protocol), Table 1; format: cell-based, HIV-1; settings: for EC50: Human immunodeficiency virus 1, PBMC; for S.I. HCQ: I.C.50/E.C.50; for Fen. HCQ (fold): ratio to HIV-IIIB
Excerpt: as §1, §2, §3, §4, §5, §6, §7, §8, §9

[5] = system: HIV-1 clinical isolated, characterised by mutations in the RT gene inducing geno-phenotypic resistance to 3TC; assay: p24 production susceptibility test (ACTG protocol), Table 3; format: cell-based; settings: for EC50: Human immunodeficiency virus 1, PBMC, read-out: E.C.50 HCQ; for S.I. HCQ / Fen. HCQ (fold): PBMC; for S.I. HCQ: I.C.50/E.C.50; for Fen. HCQ (fold): ratio to HIV-IIIB
Excerpt: as §1, §2, §3, §4
At the same time non-infected cells were incubated with concentrations of chloroquine and hydroxychloroquine ranging from 0 to 50 uM to evaluate the toxicity of the compound.
as §6, §7, §8, §9

[6] = system: HIV-1 clinical isolated, characterised by mutations on the protease gene inducing geno-phenotypic resistance to NFV; assay: p24 production susceptibility test, Table 10, H-9 cells; format: cell-based; settings: for S.I. HCQ / Fen. HCQ (fold): H-9; for S.I. HCQ: I.C.50/E.C.50; for Fen. HCQ (fold): ratio to HIV-IIIB; for EC50: Human immunodeficiency virus 1, H9, H-9, read-out: E.C.50 HCQ
Excerpt: as §1, §2, §3, §4, §5, §6, §7, §8, §9

[7] = PBMC, Gen. K20R E35D M36I I54V V82T
[8] = PBMC, Gen. D67N K70R T215F K219Q
[9] = PBMC, Gen. D 67 Ns K 70N T215F K219Q
[10] = PBMC, Gen. M41I M184V L210W R221K T215Y
[11] = PBMC, Gen. M41L D67N K70RM 184V T215F
[12] = PBMC, Gen. M41LD 76N K70R T215Y
[13] = Gen. M4IL E44D D67N M184V R211K T215Y
[14] = Gen. M41L D67N V118I M184V T215Y

CCN(CCO)CCCC(C)Nc1ccnc2cc(Cl)ccc12 (stereo not drawn) [HCQ, hydroxychloroquine]
EC50 ([1]; PBMC, Gen. G48V V82A, read-out: E.C.50 HCQ): 2.8 µM
EC50 ([1]; PBMC, Gen. I84V L90M, read-out: E.C.50 HCQ): 1.8 µM
EC50 ([1]; PBMC, Gen. K20R E35D M36I I54V V82T, read-out: E.C.50 HCQ): 2.2 µM
EC50 ([1]; PBMC, Gen. V82F L90M, read-out: E.C.50 HCQ): 3.3 µM
EC50 ([1]; read-out: E.C.50 HCQ (uM), PBMC, Gen. L10R M46I L63P V82T): 1.8 µM
S.I. HCQ ([1]; PBMC, Gen. G48V V82A): 3
Fen. HCQ (fold) ([1]; PBMC, Gen. G48V V82A): 1.5X fold
S.I. HCQ ([1]; PBMC, Gen. I84V L90M): 5.5
Fen. HCQ (fold) ([1]; PBMC, Gen. I84V L90M): 1X fold
S.I. HCQ [1, 7]: 4.5
Fen. HCQ (fold) [1, 7]: 1.2X fold
S.I. HCQ ([1]; PBMC, Gen. L10R M46I L63P V82T): 5
Fen. HCQ (fold) ([1]; PBMC, Gen. L10R M46I L63P V82T): 0.8X fold
S.I. HCQ ([1]; PBMC, Gen. V82F L90M): 2.5
Fen. HCQ (fold) ([1]; PBMC, Gen. V82F L90M): 1.7X fold
EC50 ([2]; Gen. G48V I84V A74V L90M): 1.5 µM
EC50 ([2]; Gen. G48V V82A): 3 µM
EC50 ([2]; Gen. I84V L90M): 2.8 µM
EC50 ([2]; Gen. M46I G48V L63P L90M): 1.8 µM
EC50 ([2]; Gen. V82A L90M): 1.8 µM
S.I. HCQ ([2]; Gen. G48V I84V A74V L90M): 4
Fen. HCQ (fold) ([2]; Gen. G48V I84V A74V L90M): 0.8X fold
S.I. HCQ ([2]; Gen. G48V V82A): 3
Fen. HCQ (fold) ([2]; Gen. G48V V82A): 1.6X fold
S.I. HCQ ([2]; Gen. I84V L90M): 3
Fen. HCQ (fold) ([2]; Gen. I84V L90M): 1.5X fold
S.I. HCQ ([2]; Gen. M46I G48V L63P L90M): 6
Fen. HCQ (fold) ([2]; Gen. M46I G48V L63P L90M): 1X fold
S.I. HCQ ([2]; Gen. V82A L90M): 5.5
Fen. HCQ (fold) ([2]; Gen. V82A L90M): 1X fold
EC50 ([3]; Gen. G190E): 3.5 µM
EC50 ([3]; Gen. K103N): 2.8 µM
EC50 ([3]; Gen. V106A): 3.2 µM
EC50 ([3]; Gen. Y181C): 3.2 µM
S.I. HCQ ([3]; Gen. G190E): 6
Fen. HCQ (fold) ([3]; Gen. G190E): 1.9X fold
S.I. HCQ ([3]; Gen. K103N): 7.8
Fen. HCQ (fold) ([3]; Gen. K103N): 1.5X fold
S.I. HCQ ([3]; Gen. V106A): 6.2
Fen. HCQ (fold) ([3]; Gen. V106A): 1.7X fold
S.I. HCQ ([3]; Gen. Y181C): 6.1
Fen. HCQ (fold) ([3]; Gen. Y181C): 1.7X fold
EC50 ([4]; PBMC, Gen. D67N K70R T215F K219Q, read-out: E:C.50 HCQ): 2 µM
EC50 ([4]; PBMC, Gen. D 67 Ns K 70N T215F K219Q, read-out: E:C.50 HCQ): 2.5 µM
EC50 ([4]; PBMC, Gen. K70R T215F K219Q, read-out: E:C.50 HCQ): 2 µM
EC50 ([4]; PBMC, Gen. M41I M184V L210W R221K T215Y, read-out: E:C.50 HCQ): 1 µM
EC50 ([4]; PBMC, Gen. M41I T215Y, read-out: E:C.50 HCQ): 2.5 µM
EC50 ([4]; PBMC, Gen. M41L D67N K70RM 184V T215F, read-out: E:C.50 HCQ): 2.5 µM
EC50 ([4]; read-out: E:C.50 HCQ (uM), PBMC, Gen. M41LD 76N K70R T215Y): 2.8 µM
S.I. HCQ [4, 8]: 4
Fen. HCQ (fold) [4, 8]: 1.1X fold
S.I. HCQ [4, 9]: 3.6
Fen. HCQ (fold) [4, 9]: 1.6X fold
S.I. HCQ ([4]; PBMC, Gen. K70R T215F K219Q): 5
Fen. HCQ (fold) ([4]; PBMC, Gen. K70R T215F K219Q): 1.1X fold
S.I. HCQ [4, 10]: 7
Fen. HCQ (fold) [4, 10]: 0.5X fold
S.I. HCQ ([4]; PBMC, Gen. M41I T215Y): 4.5
Fen. HCQ (fold) ([4]; PBMC, Gen. M41I T215Y): 1.3X fold
S.I. HCQ [4, 11]: 3.6
Fen. HCQ (fold) [4, 11]: 1.3X fold
S.I. HCQ [4, 12]: 3.4
Fen. HCQ (fold) [4, 12]: 1.5X fold
EC50 [5, 13]: 2.5 µM
EC50 [5, 14]: 3.2 µM
EC50 ([5]; Gen. M184I): 2.8 µM
EC50 ([5]; Gen. M184V): 3 µM
S.I. HCQ [5, 13]: 3.5
Fen. HCQ (fold) [5, 13]: 1.5X fold
S.I. HCQ [5, 14]: 3.3
Fen. HCQ (fold) [5, 14]: 1.7X fold
S.I. HCQ ([5]; Gen. M184I): 3.4
Fen. HCQ (fold) ([5]; Gen. M184I): 1.2X fold
S.I. HCQ ([5]; Gen. M184V): 3.2
Fen. HCQ (fold) ([5]; Gen. M184V): 1.3X fold
S.I. HCQ ([6]; Gen. D30N): 4.4
Fen. HCQ (fold) ([6]; Gen. D30N): 1.2X fold
S.I. HCQ ([6]; Gen. V82A): 5.5
Fen. HCQ (fold) ([6]; Gen. V82A): 1.3X fold
EC50 ([6]; Gen. D30N): 2.2 µM
EC50 ([6]; Gen. V82A): 2.5 µM
